Measurements published in patent publication US20250313535A1, “ALPHA 4 BETA 7 INTEGRIN MODULATORS AND USES THEREOF” (DICE MOLECULES SV, INC., priority 2022, published 2025).
pIC50: −log10 of the molar value. Like-named read-outs stand apart in the source and are kept apart here.

What was measured:
[1] = molecular target: α4β7 integrin (Homo sapiens (Human), UniProt P13612+P26010); experiment: Integrin Adhesion Assay: Protocol 4 (MAdCAM-coated plate, RPMI-8866 cells with stable LOF mutation of the ITGB1 gene); format: cell-based
α4β7 integrin, sequence (P13612 34-1032): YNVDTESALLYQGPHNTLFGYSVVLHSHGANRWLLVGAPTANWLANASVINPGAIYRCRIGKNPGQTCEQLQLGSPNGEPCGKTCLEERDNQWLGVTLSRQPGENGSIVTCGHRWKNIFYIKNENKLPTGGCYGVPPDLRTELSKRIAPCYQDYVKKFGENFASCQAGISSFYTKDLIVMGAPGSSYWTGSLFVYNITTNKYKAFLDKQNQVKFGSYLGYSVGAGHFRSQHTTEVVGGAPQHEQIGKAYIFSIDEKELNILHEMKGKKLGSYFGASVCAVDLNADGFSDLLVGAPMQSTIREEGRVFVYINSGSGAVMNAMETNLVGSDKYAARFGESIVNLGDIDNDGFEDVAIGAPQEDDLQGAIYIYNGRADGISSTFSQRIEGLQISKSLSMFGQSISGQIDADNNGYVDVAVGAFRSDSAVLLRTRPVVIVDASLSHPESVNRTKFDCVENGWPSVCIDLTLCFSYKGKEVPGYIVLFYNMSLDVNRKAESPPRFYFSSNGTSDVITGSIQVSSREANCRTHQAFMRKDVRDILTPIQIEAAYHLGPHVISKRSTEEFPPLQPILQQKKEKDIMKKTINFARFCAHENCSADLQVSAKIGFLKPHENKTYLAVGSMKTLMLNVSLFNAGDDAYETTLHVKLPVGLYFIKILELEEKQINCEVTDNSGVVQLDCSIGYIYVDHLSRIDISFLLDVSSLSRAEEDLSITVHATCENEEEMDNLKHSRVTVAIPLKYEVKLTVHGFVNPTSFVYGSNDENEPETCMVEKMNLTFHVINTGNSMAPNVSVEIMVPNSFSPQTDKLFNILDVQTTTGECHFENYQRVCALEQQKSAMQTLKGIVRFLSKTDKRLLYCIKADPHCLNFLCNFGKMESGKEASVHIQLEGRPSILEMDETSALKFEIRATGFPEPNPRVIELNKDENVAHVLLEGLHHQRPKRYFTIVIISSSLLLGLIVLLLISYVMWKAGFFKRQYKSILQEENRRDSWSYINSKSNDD
α4β7 integrin, sequence (P26010 20-798): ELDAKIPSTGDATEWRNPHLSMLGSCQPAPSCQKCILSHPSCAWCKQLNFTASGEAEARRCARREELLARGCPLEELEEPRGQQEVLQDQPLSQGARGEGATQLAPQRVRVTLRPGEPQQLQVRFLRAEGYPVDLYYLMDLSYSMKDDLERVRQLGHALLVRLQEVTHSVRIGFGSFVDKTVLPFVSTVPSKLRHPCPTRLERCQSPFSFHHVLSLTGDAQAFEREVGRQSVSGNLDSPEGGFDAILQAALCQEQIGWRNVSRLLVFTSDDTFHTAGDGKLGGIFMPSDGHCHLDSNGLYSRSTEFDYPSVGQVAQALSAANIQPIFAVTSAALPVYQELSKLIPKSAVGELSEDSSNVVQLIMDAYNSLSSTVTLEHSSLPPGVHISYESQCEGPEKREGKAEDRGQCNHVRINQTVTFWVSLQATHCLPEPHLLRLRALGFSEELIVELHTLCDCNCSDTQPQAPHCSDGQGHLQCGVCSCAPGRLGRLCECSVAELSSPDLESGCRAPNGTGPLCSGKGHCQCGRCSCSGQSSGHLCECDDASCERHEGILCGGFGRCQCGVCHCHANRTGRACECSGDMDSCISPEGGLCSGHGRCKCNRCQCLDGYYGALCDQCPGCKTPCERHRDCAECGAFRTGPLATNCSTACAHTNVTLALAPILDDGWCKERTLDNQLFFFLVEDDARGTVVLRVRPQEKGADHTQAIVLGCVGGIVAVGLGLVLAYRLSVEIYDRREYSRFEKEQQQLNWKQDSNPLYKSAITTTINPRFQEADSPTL
Protocol: (§1) Integrin Adhesion Assay Using Genetically Modified Cells Generating Stable Cell Lines with ITGB1 or ITGB7 Knockout (Protocol 4 and Protocol 5)
(§2) To obtain subclones of the RPMI-8866 cell line (Sigma-Aldrich, St. Louis, MO) that were individually deficient in either integrin β1 or integrin β 7, CRISPR/Cas9 technology was employed (PMID: 30108345). Specifically, a Neon™ Transfection System System 10 μL Kit and the Neon™ Transfection device (both from ThermoFisher Scientific) were used.
(§3) The protocol was performed following the manufacturer instructions, described in https://www.thermofisher.com/document-connect/document-connect.html?url=https % 3A%2F%2F assets.thermofisher.com%2FTFS-Assets%2FLSG%2Fmanuals%2FMAN0017066_TrueCut Cas9_Protein_v2_UG.pdf, which is incorporated by reference herein in its entirety.
(§4) RPMI-8866 cells were transferred to a flask the day before transfection, at a confluence of 5×10^5 cells/mL. The cells were washed with PBS and resuspended in buffer R (Neon™ Transfection System, Invitrogen) to 2×10^5 cells/10 uL for each reaction. The TrueCut™ HiFi Cas9 Protein (1250 ng per reaction) was mixed with TrueGuide™ sgRNA (7.5 pmoles each/pool of 3 sequences, table 1) (ThermoFisher Scientific). This mix was combined with the RPMI-8866 cells and electroporated on the Neon system at 1700V/20 ms/1 pulse. Transfected cells were allowed to recover in 500 μL pre-warmed cRMPI media (RPMI-1640 media with 10% FBS, 100 U/ml Penicillin-Streptomycin) at 37° C., 5% CO2 for 24 hours. At that time, an extra 500 μL of pre-warmed cRMPI media was added, and cells were incubated for another 24 hours.
(§5) For flow cytometry analysis, 100 μL of the transfected cells were collected and stained with anti-itga4 (Clone: 9F10, PE, BD Pharmingen™), anti-itgb 1 (Clone: (TS2/16), Super Bright 436, eBioscience), anti-itgb7 (Clone: FIB504, Brilliant Violet 650, BD Pharmingen™) and viability dye (LIVE/DEAD™ Fixable Green Dead Cell Stain, Invitrogen™). An Attune NxT Flow Cytometer was used to analyze the CRISPR-transfected cells. The flow cytometry results were analyzed using FlowJo™ v10.8.1 Software (BD Life Sciences). Fluorescence minus one (FMO) controls were used to select appropriate gates for data analysis.
(§6) To generate an individual clones of cells deficient in either ITGB7 or ITGB1 by limiting dilution assay, the transfected cells were resuspended at 5 cells/mL and seeded in 384 well plates. Outgrowth of clones was monitored using a microscope, and 24 clones were transferred for expansion. Expression of either integrin was verified by flow cytometry in each of the clones. One clone of each integrin b7 or the integrin b1 knockout was chosen, expanded and aliquots were frozen in vapor phase liquid nitrogen.
Integrin Adhesion Assay: Protocol 4
(§7) MAdCAM (R&D Systems, 0.1 ug) was diluted in 50 μL PBS, added to each well of an opaque ELISA plate (Thermo), and incubated overnight at 4° C. Coated plates were washed once with PBS and then blocked with 200 μL of assay buffer (10 mM HEPES, 150 mM NaCl, 1 mM MnCl2, 0.1 mM CaCl2), 1% BSA) for 1 hour at 37° C. and 5% CO2. After incubation, buffer was aspirated from the plates and 50 μL of fresh assay buffer was added. Compounds were added using a compounds dispenser (Tecan), and DMSO concentration was normalized to 1% across each plate. 50 μL of RPMI-8866 cells with a stable loss of function (LOF) mutation of the ITGB1 gene (2×10^6 per mL) were added to each well and the plates were incubated for 1 hour at 37° C. at a CO2 concentration of 5%. After incubation, plates were allowed to cool to RT for 10 minutes before being washed four times in assay buffer by an automated plate washer (BioTek). After washing, 100 μL of a 1:1 mixture of assay buffer and CellTiter GLO 2.0 reagent (Promega) were added to each well. Plates were mixed for 2 minutes at 1000 rpm and then allowed to incubate an additional 10 minutes before reading out luminescence on a Tecan Spark plate reader. […]

[2] = molecular target: α4β1 integrin (Homo sapiens (Human), UniProt P05556+P13612); experiment: Integrin Adhesion Assay: Protocol 5 (VCAM-coated plate, RPMI-8866 cells with stable LOF mutation of the ITGB7 gene); format: cell-based
α4β1 integrin, sequence (P13612 34-1032): as the sequence (P13612 34-1032) above
α4β1 integrin, sequence (P05556 21-798): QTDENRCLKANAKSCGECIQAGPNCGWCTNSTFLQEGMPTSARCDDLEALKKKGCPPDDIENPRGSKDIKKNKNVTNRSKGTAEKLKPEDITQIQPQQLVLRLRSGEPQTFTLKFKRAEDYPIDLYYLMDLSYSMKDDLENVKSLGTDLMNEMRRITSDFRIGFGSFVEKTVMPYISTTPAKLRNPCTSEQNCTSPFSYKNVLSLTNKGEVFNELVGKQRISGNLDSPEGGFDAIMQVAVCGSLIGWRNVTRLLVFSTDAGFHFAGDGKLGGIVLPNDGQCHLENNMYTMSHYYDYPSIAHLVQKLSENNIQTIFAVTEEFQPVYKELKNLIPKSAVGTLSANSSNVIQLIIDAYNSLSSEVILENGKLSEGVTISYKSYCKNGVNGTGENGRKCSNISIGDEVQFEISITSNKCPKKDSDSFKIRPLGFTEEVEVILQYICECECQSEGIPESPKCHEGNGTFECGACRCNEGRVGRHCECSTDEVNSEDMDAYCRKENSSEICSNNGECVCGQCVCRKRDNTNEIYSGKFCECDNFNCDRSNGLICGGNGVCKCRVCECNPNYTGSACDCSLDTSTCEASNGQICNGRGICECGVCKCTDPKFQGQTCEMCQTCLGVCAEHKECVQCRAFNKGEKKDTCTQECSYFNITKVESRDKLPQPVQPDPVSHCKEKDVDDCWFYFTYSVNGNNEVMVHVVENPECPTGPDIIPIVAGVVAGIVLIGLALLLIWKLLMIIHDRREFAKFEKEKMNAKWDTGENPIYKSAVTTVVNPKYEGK
Protocol: as §1, §2, §3, §4, §5, §6
Integrin Adhesion Assay: Protocol 5
as §7, with “VCAM” for “MAdCAM”, “by” for “using a”, “(Tecan)” for “(Tecan),”, “LOF” for “loss of function (LOF)”, “ITGB7” for “ITGB1”, “and 5% CO2.” for “at a CO2 concentration of 5%.”

[3] = Protocol 4, RPMI-8866 cells with LOF mutation of ITGB1, MAdCAM, read-out: Mean IC50 α4β7 KO
[4] = Protocol 5, RPMI-8866 cells with LOF mutation of ITGB7, VCAM, read-out: Mean IC50 α4β1 KO
[5] = RPMI-8866 cells with stable LOF mutation of the ITGB1 gene, read-out: Mean IC50 α4β7 KO^a
[6] = RPMI-8866 cells with stable LOF mutation of the ITGB7 gene, read-out: Mean IC50 α4β1 KO^b

pIC50 [1, 3]	pIC50 [2, 4]	pIC50 [1, 5]	pIC50 [2, 6]	SMILES
> 8.00	< 6.00			Cc1cc(CCN2CCCCC2)cnc1-c1cccc2c(C[C@H](NC(=O)C3(C(F)(F)F)CCN(CC(F)F)CC3)C(=O)O)cccc12 [Compound 756]
7.00 to 8.00	< 6.00			O=C(O)[C@H](Cc1cccc2c(-c3ccc(CN4CCCCC4)cn3)cccc12)NC(=O)C1(C(F)(F)F)CCN(CC(F)F)CC1 [Compound 896]
> 8.00	6.00 to 7.00			CC[C@H]1CCCN1Cc1cnc(-c2cccc3c(C[C@H](NC(=O)C4(C(F)(F)F)CCN(CC(F)(F)F)CC4)C(=O)O)cccc23)c2ccccc12 [Compound 933]
		7.00 to 8.00	6.00 to 7.00	Cn1c(=O)c(-c2cccc3c(C[C@H](NC(=O)C4(C(F)(F)F)CCN(C5CC(F)(F)C5)CC4)C(=O)O)cccc23)c(C(F)(F)F)c2ccccc21 [Compound 493]
7.00 to 8.00	< 6.00			Cn1c(=O)c(-c2cccc3c(C[C@H](NC(=O)C4(C(F)(F)F)CCN(CC(F)(F)F)CC4)C(=O)O)cccc23)c(C(F)(F)F)c2ccc(CN3CCC(F)(F)CC3)cc21 [Compound 846]
7.00 to 8.00	< 6.00			COc1cc(CN2CCC[C@@H](F)C2)cc(C(F)(F)F)c1-c1cccc2c(C[C@H](NC(=O)C3(C(F)(F)F)CCN(CC(F)(F)F)CC3)C(=O)O)cccc12 [Compound 849]
		7.00 to 8.00	< 6.00	COc1ccc(CN2CCC(F)(F)CC2)c(OC)c1-c1cccc2c(C[C@H](NC(=O)C3(C(F)(F)F)CCN(C4COCC4(F)F)CC3)C(=O)O)cccc12 (single isomer, unassigned) [Compound 640]
		> 8.00	6.00 to 7.00	COc1ccc(CN2CCOCC2)c(OC)c1-c1cccc2c(C[C@H](NC(=O)c3c(C)cccc3F)C(=O)O)cccc12 [Compound 650]
7.00 to 8.00	< 6.00			Cc1cc(C(F)(F)F)cc(F)c1C(=O)N[C@@H](Cc1cccc2c(-c3c(C(F)(F)F)c4cc(CN(C)C)ccc4n(C)c3=O)cccc12)C(=O)O [Compound 700]
7.00 to 8.00	< 6.00			O=C(O)[C@H](Cc1cccc2c(-c3ncc(CN4CC(F)C4)c4ccccc34)cccc12)NC(=O)C1(C(F)(F)F)CCN(CC(F)(F)F)CC1 [Compound 865]
7.00 to 8.00	< 6.00			COc1cccc(CCCN2CCC(F)(F)CC2)c1-c1cccc2c(C[C@H](NC(=O)C3(C(F)(F)F)CCN(CC(F)(F)F)CC3)C(=O)O)cccc12 [Compound 742]
7.00 to 8.00	< 6.00			COc1cccc(CN2CC3CCC(C2)O3)c1-c1cccc2c(C[C@H](NC(=O)c3c(C)cccc3F)C(=O)O)cccc12 [Compound 1028]
		> 8.00	6.00 to 7.00	CN1CCCC1c1cc(-c2cccc3c(C[C@H](NC(=O)C4(C(F)(F)F)CCN(C5COC5)CC4)C(=O)O)cccc23)c2cnccc2c1 (some centres unmarked) [Compound 644]
7.00 to 8.00	< 6.00			O=C(O)[C@H](Cc1cccc2c(-c3ncc(CN4CCCC(F)(F)CC4)c4ccccc34)cccc12)NC(=O)C1(C(F)(F)F)CCN(CC(F)(F)F)CC1 [Compound 869]
> 8.00	6.00 to 7.00			COc1cccc(CCN2CCC(F)(F)CC2)c1-c1cccc2c(C[C@H](NC(=O)C3(C(F)(F)F)CCN(CC(F)F)CC3)C(=O)O)cccc12 [Compound 976]
> 8.00	< 6.00			COc1cc(CN2CCCCC2)cc(C(F)(F)F)c1-c1cccc2c(C[C@H](NC(=O)C3(C(F)(F)F)CCN(CC(F)(F)F)CC3)C(=O)O)cccc12 [Compound 824]
> 8.00	6.00 to 7.00			COc1cncc(OC)c1-c1cccc2c(C[C@H](NC(=O)C3(C(F)(F)F)CCN(CC(F)(F)F)CC3)C(=O)O)cccc12 [Compound 734]
> 8.00	6.00 to 7.00			COc1cc(CN2CCCC2)cc(OC)c1-c1cccc2c(C[C@H](NC(=O)C3(C(F)(F)F)CCN(CC(F)(F)F)CC3)C(=O)O)cccc12 [Compound 796]
		> 8.00	< 6.00	COc1cnc(CN(C)C)cc1-c1cccc2c(C[C@H](NC(=O)c3c(C)cccc3F)C(=O)O)cccc12 [Compound 601]
